{"source": "patent US6569449B1", "about": "“Transdermal delivery of opioid antagonist prodrugs” (University of Kentucky Research Foundation, priority 2000, dated 2003)", "key": {"[1]": {"test": "Octanol/water partition coefficients", "type": "physicochemical", "conditions": "octanol/pH 7.4 isotonic phosphate buffer, room temperature; read-out: Experimental log P", "description": "The octanol/water partition coefficients were determined using pH 7.4 isotonic phosphate buffer as the aqueous phase. All steps were carried out at room temperature. An appropriate amount of drug was weighed into a vial and dissolved in a known amount of octanol. An equivalent amount of buffer was then added to the vial and the phases shaken for 24 hours. The vials were left undisturbed for at least one hour after shaking. An exact volume was taken from the aqueous phase, diluted with acetonitrile, and then analyzed by HPLC. The final pH of the aqueous phase at the end of the shaking period was 7.95. Similarly, an exact volume was taken from the octanol phase, diluted with acetonitrile, and then analyzed by HPLC. Partition coefficients were calculated by determining the phase concentration ratios."}, "[2]": {"test": "Solubilities in light mineral oil and pH 7.4 isotonic phosphate buffer", "type": "physicochemical", "conditions": "thermodynamic from solid, 32° C., 48 hours equilibration", "description": "The solubilities of naltrexone and its esters were obtained by equilibrating large excesses of each substance with the respective vehicle, light mineral oil, or pH 7.4 isotonic phosphate buffer at 32° C. To hasten the attainment of equilibrium, each slurry was continuously shaken in a sealed container in a shaking incubation oven. Samples were taken, filtered (mineral oil:Millex FG-13, Millipore and buffer:glass microfiber, Gelman) above 32° C., measured with respect to volume, and diluted with the appropriate amount of acetonitrile. The diluted samples were analyzed by HPLC. The initial forty percent of each filtrate was discarded to eliminate the possibility that adsorption of drug on the filter and/or the filtering apparatus might influence the solubility determination. The sampling procedure was repeated at least once for each sample. […] Therefore, the equilibration times for all the studies were 48 hours."}}, "note": "Where two headings read alike, the source gives them in different places."}
{"smiles": "O=C1CC[C@@]2(O)[C@H]3Cc4ccc(O)c5c4[C@@]2(CCN3CC2CC2)[C@H]1O5", "note": "[NTX, Naltrexone]", "values": [{"measurement": "logP at 24 h", "setting": "[1]", "result": 0.67}, {"measurement": "solubility at 48 h", "setting": "[2]; aqueous buffer, pH 7.4 isotonic phosphate buffer, read-out: Phosphate Buffer Solubility pH 7.4 32° C.", "result": 15.2, "unit": "mM"}, {"measurement": "solubility at 48 h", "setting": "[2]; oil or lipid, light mineral oil, read-out: Light Mineral Oil Solubility 32° C.", "result": 0.258, "unit": "mM"}]}
